Reference: ChEMBL document CHEMBL4118098, “Discovery of DS28120313 as a potent orally active hepcidin production inhibitor: Design and optimization of novel 4,6-disubstituted indazole derivatives” (Bioorg Med Chem Lett, 2017)

Tests used:
[1] = molecular target: Death-associated protein kinase 1 (Homo sapiens) (UniProt P53355); assay: Inhibition of DAPK1 (unknown origin) at 0.45 uM relative to control
[2] = molecular target: Tyrosine-protein kinase Fyn (Homo sapiens) (UniProt P06241); assay: Inhibition of FYN (unknown origin) at 0.19 uM relative to control
[3] = molecular target: RAC-alpha serine/threonine-protein kinase (Homo sapiens) (UniProt P31749); assay: Inhibition of AKT1 (unknown origin) at 0.19 uM relative to control
[4] = test system: Platelet-derived growth factor receptor alpha (Homo sapiens), P16234 [D842V]; assay: Inhibition of PDGFRA D842V mutant (unknown origin) at 0.19 uM relative to control
[5] = molecular target: Serine/threonine-protein kinase Nek1 (Homo sapiens) (UniProt Q96PY6); assay: Inhibition of NEK1 (unknown origin) at 0.19 uM relative to control
[6] = molecular target: MAP kinase-activated protein kinase 3 (Homo sapiens) (UniProt Q16644); assay: Inhibition of MAPKAPK3 (unknown origin) at 0.19 uM relative to control
[7] = molecular target: Tyrosine-protein kinase Blk (Homo sapiens) (UniProt P51451); assay: Inhibition of BLK (unknown origin) at 0.19 uM relative to control
[8] = molecular target: Serine/threonine-protein kinase 25 (Homo sapiens) (UniProt O00506); assay: Inhibition of YSK (unknown origin) at 0.19 uM relative to control
[9] = molecular target: Phosphorylase b kinase gamma catalytic chain, skeletal muscle/heart isoform (Homo sapiens) (UniProt Q16816); assay: Inhibition of PhKg1 (unknown origin) at 0.164 uM relative to control
Phosphorylase b kinase gamma catalytic chain, skeletal muscle/heart isoform (Homo sapiens), sequence (Q16816 whole entry, looked up, canonical isoform): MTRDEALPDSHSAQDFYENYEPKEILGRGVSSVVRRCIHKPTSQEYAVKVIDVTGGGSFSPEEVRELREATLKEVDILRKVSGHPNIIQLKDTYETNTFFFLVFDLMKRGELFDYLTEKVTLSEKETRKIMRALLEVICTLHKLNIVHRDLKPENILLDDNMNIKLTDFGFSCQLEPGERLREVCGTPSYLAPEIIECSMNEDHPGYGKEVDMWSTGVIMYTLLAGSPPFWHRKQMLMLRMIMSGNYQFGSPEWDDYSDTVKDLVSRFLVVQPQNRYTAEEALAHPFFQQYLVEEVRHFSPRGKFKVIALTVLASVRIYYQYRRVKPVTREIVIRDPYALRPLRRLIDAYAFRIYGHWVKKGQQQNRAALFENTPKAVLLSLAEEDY

RAC-alpha serine/threonine-protein kinase (Homo sapiens), sequence (P31749 whole entry): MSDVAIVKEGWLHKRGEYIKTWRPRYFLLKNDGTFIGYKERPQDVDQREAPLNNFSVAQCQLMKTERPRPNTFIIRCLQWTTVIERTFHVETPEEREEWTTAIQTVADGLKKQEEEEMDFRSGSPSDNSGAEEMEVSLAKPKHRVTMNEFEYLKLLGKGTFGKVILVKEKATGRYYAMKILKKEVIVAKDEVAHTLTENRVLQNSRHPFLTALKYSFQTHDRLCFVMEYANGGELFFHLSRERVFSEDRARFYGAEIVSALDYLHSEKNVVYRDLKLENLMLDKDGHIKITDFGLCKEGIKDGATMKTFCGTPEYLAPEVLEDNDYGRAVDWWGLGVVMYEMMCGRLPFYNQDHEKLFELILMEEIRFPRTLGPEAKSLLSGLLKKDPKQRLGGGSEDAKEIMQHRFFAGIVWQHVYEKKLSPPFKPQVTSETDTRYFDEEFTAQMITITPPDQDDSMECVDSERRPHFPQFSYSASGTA
Platelet-derived growth factor receptor alpha (Homo sapiens), P16234 [D842V], sequence (P16234 whole entry D842V): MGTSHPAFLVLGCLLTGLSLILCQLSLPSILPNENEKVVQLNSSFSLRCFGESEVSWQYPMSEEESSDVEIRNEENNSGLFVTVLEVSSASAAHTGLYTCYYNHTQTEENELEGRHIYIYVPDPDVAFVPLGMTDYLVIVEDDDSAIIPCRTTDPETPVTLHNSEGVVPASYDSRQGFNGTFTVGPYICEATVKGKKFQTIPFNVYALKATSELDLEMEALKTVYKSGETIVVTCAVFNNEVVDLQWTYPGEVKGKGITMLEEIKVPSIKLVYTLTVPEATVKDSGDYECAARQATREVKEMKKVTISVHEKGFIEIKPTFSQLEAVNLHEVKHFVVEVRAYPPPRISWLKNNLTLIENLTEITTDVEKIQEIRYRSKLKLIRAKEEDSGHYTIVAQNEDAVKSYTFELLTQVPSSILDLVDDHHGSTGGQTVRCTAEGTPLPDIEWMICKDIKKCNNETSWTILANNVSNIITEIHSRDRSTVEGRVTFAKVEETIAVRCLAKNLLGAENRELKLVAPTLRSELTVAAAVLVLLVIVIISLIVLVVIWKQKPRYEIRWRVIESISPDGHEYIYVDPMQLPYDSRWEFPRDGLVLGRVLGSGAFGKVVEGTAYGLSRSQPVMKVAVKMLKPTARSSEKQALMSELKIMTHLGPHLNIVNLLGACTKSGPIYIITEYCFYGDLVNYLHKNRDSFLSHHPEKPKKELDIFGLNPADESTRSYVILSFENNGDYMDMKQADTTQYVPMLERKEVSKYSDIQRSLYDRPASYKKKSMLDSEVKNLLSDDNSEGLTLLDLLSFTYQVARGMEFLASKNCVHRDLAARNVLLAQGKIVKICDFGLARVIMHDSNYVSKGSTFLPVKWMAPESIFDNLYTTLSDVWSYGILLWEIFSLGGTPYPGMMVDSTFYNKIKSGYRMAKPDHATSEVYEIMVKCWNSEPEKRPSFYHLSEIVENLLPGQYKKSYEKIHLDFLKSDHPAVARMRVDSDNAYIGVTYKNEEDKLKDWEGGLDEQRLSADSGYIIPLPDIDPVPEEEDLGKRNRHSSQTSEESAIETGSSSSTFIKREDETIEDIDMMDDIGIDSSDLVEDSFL
MAP kinase-activated protein kinase 3 (Homo sapiens), sequence (Q16644 whole entry, looked up): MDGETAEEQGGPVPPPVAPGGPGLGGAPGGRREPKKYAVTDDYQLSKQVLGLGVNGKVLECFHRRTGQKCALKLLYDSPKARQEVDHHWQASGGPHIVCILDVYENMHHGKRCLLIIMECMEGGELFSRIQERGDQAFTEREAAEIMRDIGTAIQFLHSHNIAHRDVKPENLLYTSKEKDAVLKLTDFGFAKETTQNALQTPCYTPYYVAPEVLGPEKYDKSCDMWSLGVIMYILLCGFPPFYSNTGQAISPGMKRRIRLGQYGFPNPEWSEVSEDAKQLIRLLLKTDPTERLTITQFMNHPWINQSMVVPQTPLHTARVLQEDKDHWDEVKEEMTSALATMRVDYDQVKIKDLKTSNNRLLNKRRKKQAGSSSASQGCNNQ
Death-associated protein kinase 1 (Homo sapiens), sequence (P53355 whole entry, looked up): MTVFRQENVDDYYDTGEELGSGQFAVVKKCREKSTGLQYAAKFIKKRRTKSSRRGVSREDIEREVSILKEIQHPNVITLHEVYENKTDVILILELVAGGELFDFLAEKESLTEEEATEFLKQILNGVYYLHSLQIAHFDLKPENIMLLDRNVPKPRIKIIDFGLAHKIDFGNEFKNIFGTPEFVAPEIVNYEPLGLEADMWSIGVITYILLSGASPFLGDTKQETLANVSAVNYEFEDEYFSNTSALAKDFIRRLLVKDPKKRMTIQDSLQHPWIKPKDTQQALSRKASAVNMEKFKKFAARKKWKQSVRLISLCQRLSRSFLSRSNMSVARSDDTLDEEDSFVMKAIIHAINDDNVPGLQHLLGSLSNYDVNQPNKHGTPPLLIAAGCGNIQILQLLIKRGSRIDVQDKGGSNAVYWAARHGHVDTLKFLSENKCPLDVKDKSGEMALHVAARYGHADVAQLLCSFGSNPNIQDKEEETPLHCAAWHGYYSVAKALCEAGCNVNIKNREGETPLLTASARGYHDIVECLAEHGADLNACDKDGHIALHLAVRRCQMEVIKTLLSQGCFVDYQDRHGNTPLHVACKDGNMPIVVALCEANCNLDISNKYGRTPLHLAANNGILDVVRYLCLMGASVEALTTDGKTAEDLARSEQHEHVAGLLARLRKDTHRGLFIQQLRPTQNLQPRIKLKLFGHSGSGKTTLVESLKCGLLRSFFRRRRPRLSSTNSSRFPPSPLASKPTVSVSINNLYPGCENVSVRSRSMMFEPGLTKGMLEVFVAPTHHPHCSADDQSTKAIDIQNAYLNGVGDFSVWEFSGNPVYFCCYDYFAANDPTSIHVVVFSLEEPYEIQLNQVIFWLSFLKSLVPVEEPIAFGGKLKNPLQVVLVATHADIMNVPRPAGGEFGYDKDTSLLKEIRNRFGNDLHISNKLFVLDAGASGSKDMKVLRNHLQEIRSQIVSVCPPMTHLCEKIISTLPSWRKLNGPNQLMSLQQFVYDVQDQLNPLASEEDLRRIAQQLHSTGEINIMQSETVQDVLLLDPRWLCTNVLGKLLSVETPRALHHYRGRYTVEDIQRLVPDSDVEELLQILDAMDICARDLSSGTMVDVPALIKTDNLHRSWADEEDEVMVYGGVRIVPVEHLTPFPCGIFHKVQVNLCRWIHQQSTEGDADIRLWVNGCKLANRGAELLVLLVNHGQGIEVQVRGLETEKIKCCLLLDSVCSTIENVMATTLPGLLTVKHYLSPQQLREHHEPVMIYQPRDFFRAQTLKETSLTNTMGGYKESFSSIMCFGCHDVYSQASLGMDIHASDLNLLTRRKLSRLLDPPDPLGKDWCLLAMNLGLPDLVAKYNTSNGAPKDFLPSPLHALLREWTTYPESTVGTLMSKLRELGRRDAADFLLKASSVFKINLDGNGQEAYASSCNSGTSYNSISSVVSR
Serine/threonine-protein kinase Nek1 (Homo sapiens), sequence (Q96PY6 whole entry): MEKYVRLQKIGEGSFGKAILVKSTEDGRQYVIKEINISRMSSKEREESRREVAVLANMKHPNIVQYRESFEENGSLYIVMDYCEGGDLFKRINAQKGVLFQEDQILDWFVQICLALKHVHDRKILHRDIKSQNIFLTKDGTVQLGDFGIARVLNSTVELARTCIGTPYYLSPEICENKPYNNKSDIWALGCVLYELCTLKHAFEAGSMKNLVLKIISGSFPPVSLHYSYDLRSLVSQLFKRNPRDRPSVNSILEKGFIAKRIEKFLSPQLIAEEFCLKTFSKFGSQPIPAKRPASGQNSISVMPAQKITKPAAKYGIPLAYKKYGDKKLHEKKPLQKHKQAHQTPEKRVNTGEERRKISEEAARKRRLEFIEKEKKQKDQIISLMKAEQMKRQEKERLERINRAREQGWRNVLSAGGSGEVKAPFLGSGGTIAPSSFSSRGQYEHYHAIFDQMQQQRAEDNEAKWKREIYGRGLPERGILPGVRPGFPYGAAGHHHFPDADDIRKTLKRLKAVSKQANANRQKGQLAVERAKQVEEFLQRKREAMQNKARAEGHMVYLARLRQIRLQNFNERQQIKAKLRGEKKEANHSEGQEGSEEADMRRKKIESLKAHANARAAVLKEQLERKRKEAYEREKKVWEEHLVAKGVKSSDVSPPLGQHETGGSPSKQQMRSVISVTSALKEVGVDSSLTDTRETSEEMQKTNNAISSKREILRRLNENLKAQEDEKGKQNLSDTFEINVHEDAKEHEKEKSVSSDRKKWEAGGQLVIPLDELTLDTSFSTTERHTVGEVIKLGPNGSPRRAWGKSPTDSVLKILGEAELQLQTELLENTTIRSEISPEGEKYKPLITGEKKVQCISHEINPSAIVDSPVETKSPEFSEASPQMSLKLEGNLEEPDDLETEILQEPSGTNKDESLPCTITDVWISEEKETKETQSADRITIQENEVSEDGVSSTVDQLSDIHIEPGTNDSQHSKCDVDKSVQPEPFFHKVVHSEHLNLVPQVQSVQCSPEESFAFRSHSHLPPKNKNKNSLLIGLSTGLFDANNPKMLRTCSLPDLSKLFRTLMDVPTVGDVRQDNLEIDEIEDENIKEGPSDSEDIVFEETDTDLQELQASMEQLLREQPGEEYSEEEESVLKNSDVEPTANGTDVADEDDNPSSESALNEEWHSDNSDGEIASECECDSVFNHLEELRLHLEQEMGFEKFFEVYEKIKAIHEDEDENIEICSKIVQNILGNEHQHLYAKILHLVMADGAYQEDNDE

Cc1n[nH]c(C)c1-c1ccc2c(NC(=O)c3ccc(N4CCN(C)CC4)cc3)n[nH]c2c1 gave an inhibition [1] of -1.3%.
Work on Cc1[nH]nc(C2CC2)c1-c1ccc2c(-c3ccc(N4CCN(C)CC4)nc3)n[nH]c2c1 yielded an inhibition [2] of 12.3%, an inhibition [3] of 1.7% and an inhibition [4] of 99.7%. The inhibition [5] was 1.3%, the inhibition [6] was -1.7% and the inhibition [7] was 3.7%. The inhibition [8] was 20%.
With COC(=O)Nc1cc(-c2c(C3CC3)n[nH]c2C)cc2[nH]ncc12 the inhibition [9] was 1%.
